Data taken from patent publication US20190209539A1, “THIOHYDANTOIN ANDROGEN RECEPTOR ANTAGONISTS FOR THE TREATMENT OF CANCER” (Janssen Pharmaceutica NV, priority 2016, published 2019).
Changes are numbered by the printed parent chain.

Columns and labels:
[1] = biological target: T1, wild-type Androgen Receptor (AR-wt) (Homo sapiens, UniProt P10275); assay: LNCaP-AR-wt AG: ARE luciferase reporter assay, agonist mode; format: cell-based; settings: maximum % stimulation (agonist response), % of 1 μM R-1881 max
T1 construct: expressed in transfected cells; host or cells: LNCaP AR (cs) cells with ARE firefly luciferase lentiviral construct
T1 sequence (P10275 1-920): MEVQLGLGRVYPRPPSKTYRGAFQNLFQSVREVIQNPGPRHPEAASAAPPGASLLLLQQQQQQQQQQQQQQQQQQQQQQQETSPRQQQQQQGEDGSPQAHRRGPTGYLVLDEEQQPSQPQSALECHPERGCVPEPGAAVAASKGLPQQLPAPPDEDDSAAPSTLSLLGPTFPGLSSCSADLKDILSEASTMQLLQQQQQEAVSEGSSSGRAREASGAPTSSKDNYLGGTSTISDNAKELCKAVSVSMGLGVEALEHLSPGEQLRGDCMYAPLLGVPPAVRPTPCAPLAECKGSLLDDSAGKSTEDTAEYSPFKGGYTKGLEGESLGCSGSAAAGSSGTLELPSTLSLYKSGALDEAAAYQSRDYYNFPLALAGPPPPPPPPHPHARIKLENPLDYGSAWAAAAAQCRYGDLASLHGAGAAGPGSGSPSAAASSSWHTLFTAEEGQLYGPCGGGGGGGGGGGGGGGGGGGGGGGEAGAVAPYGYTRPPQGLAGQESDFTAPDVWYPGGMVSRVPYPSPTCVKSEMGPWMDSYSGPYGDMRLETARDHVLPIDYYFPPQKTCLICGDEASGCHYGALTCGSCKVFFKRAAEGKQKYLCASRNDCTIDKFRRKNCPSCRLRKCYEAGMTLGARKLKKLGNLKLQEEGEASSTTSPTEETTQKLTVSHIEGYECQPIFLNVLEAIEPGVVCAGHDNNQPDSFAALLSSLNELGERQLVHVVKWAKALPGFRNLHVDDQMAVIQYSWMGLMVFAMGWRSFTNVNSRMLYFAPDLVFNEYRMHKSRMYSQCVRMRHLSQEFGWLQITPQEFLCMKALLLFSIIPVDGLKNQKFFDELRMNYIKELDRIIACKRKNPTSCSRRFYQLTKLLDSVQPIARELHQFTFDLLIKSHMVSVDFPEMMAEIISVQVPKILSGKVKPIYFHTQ
Experimental: (§1) A stable pooled-population cell line was generated using puromycin (Life Technologies) selection at 1:10,000 v/v. The protocol below was used for both cell lines and for testing of the compounds of Formula (I) of the present invention.
(§2) LNCaP cells were grown to about 80% confluence, media removed and cells rinsed in Hank's balanced salt solution prior to separation from the plate with 0.05% Trypsin EDTA. Cells were lifted and trypsin negated in complete CSS (charcoal stripped serum) culture media. […] Agonist challenge was at 400 pM for WT assay and 600 pM for F876L assay. Plates containing cells and compounds herein were incubated for a further 20-24 hours at 37° C., 5% CO2 before addition of 40 μL/well of Steady-Glo Luciferase Assay System Reagent (Promega# E2520). After 1 h, plates were read for luminescence on a BMG Pherastar.
(§3) EC/IC50 calculations were achieved utilizing calculated RLU data and data fitting macros. Data were fit using least-squares methods to the following formula: […]
(§4) As used herein: pIC50 is defined as—Log10(IC50 expressed in [Molar]). pEC50 is defined as—Log10(EC50 expressed in [Molar]). […] LNCaP-AR-wt ANT refers to the reporter assay using LNCaP cells stably transfected with the Androgen Response Element Firefly Luciferase lentiviral construct and wild-type Androgen Receptor (AR-wt) in Antagonist mode. LNCaP-AR-wt AG refers to the reporter assay using LNCaP cells stably transfected with the Androgen Response Element Firefly Luciferase lentiviral construct and wild-type Androgen Receptor (AR-wt) in Agonist mode. LNCaP-AR-F876L ANT refers to the reporter assay using LNCaP cells stably transfected with the Androgen Response Element Firefly Luciferase lentiviral construct and F876L mutant Androgen Receptor (AR-F876L) in Antagonist mode. LNCaP-AR-F876L AG refers to the reporter assay using LNCaP cells stably transfected with the Androgen Response Element Firefly Luciferase lentiviral construct and F876L mutant Androgen Receptor (AR-F876L) in Agonist mode.

[2] = biological target: T2, F876L mutant Androgen Receptor (AR-F876L) (Homo sapiens, UniProt P10275, F877L); assay: LNCaP-AR-F876L AG: ARE luciferase reporter assay, agonist mode; format: cell-based; settings: maximum % stimulation (agonist response), % of 1 μM R-1881 max
T2 construct: expressed in transfected cells; host or cells: LNCaP F876L cells with ARE firefly luciferase lentiviral construct
T2 sequence (P10275 1-920 F877L): T1 sequence (P10275 1-920) with F877L
Experimental: as §1, §2, §3, §4

| SMILES | LNCaP-AR-wt AG MAX % Stim [1] | LNCaP-AR-F876L AG MAX % Stim [2] |
| --- | --- | --- |
| Cc1cc(N2C(=O)C3(CCC3)N(c3ccc(Oc4ccncn4)cc3)C2=S)cnc1C#N [Cpd 62, 3-methyl-5-[5-oxo-8-(4-pyrimidin-4-yloxyphenyl)-7-thioxo-6,8-diazaspiro[3.4]octan-6-yl]pyridine-2-carbonitrile] | 0.8% | 0.4% |
| Cc1cc(N2C(=O)C3(CCC3)N(c3ccc(C(=O)Nc4nccs4)c(F)c3)C2=S)cnc1C#N [Cpd 63, 4-[6-(6-cyano-5-methyl-3-pyridyl)-5-oxo-7-thioxo-6,8-diazaspiro[3.4]octan-8-yl]-2-fluoro-N-thiazol-2-yl-benzamide] | 0.7% | 0.3% |
| N#Cc1ncc(N2C(=O)C3(CCC3)N(c3ccc(Oc4ccccn4)cc3)C2=S)cc1C(F)(F)F [Cpd 103, 5-[5-oxo-8-[4-(2-pyridyloxy)phenyl]-7-thioxo-6,8-diazaspiro[3.4]octan-6-yl]-3-(trifluoromethyl)pyridine-2-carbonitrile] | 4.0% | 2.0% |
| N#Cc1ncc(N2C(=O)C3(CCC3)N(c3ccc(Oc4ccncn4)cc3)C2=S)cc1C(F)(F)F [Cpd 71, 5-[5-oxo-8-(4-pyrimidin-4-yloxyphenyl)-7-thioxo-6,8-diazaspiro[3.4]octan-6-yl]-3-(trifluoromethyl)pyridine-2-carbonitrile] | 0.5% | 0.9% |
| CC(C)(O)CNC(=O)c1ccc(N2C(=S)N(c3cnc(C#N)c(C(F)(F)F)c3)C(=O)C23CCC3)cc1F [Cpd 17, 4-[6-[6-cyano-5-(trifluoromethyl)-3-pyridyl]-5-oxo-7-thioxo-6,8-diazaspiro[3.4]octan-8-yl]-2-fluoro-N-(2-hydroxy-2-methyl-propyl)benzamide] | −0.1% | 0.1% |
| Cc1cc(N2C(=O)C3(CCC3)N(c3ccc(OC4CCOCC4)cc3)C2=S)cnc1C#N [Cpd 87, 3-methyl-5-[5-oxo-8-(4-tetrahydropyran-4-yloxyphenyl)-7-thioxo-6,8-diazaspiro[3.4]octan-6-yl]pyridine-2-carbonitrile] | 1.1% | 0.9% |
| COCCNC(=O)c1ccc(N2C(=S)N(c3cnc(C#N)c(C(F)(F)F)c3)C(=O)C23CCC3)cc1F [Cpd 46, 4-[6-[6-cyano-5-(trifluoromethyl)-3-pyridyl]-5-oxo-7-thioxo-6,8-diazaspiro[3.4]octan-8-yl]-2-fluoro-N-(2-methoxyethyl)benzamide] | −0.1% | 0.2% |
| N#Cc1ncc(N2C(=O)C3(CCC3)N(c3ccccc3)C2=S)cc1C(F)(F)F [Cpd 70, 5-(5-oxo-8-phenyl-7-thioxo-6,8-diazaspiro[3.4]octan-6-yl)-3-(trifluoromethyl)pyridine-2-carbonitrile] | 0.3% | 0.9% |
| N#Cc1ncc(N2C(=O)C3(CCC3)N(c3ccc(Oc4cncnc4)cc3)C2=S)cc1C(F)(F)F [Cpd 88, 5-[5-oxo-8-(4-pyrimidin-5-yloxyphenyl)-7-thioxo-6,8-diazaspiro[3.4]octan-6-yl]-3-(trifluoromethyl)pyridine-2-carbonitrile] | 0.7% | 0.7% |
| N#Cc1ncc(N2C(=O)C3(CCC3)N(c3ccc(C(=O)NCc4ccccc4)c(F)c3)C2=S)cc1C(F)(F)F [Cpd 36, N-benzyl-4-[6-[6-cyano-5-(trifluoromethyl)-3-pyridyl]-5-oxo-7-thioxo-6,8-diazaspiro[3.4]octan-8-yl]-2-fluoro-benzamide] | 0.9% | 0.3% |
| N#Cc1ncc(N2C(=O)C3(CCC3)N(c3ccc(C(=O)NCCCN4CCOCC4)c(F)c3)C2=S)cc1C(F)(F)F [Cpd 72, 4-[6-[6-cyano-5-(trifluoromethyl)-3-pyridyl]-5-oxo-7-thioxo-6,8-diazaspiro[3.4]octan-8-yl]-2-fluoro-N-(3-morpholinopropyl)benzamide] | 0.3% | 0.6% |
| N#Cc1ncc(N2C(=O)C3(CCC3)N(c3ccc(OC4CCN(CCO)CC4)cc3)C2=S)cc1C(F)(F)F [Cpd 51, 5-[8-[4-[[1-(2-hydroxyethyl)-4-piperidyl]oxy]phenyl]-5-oxo-7-thioxo-6,8-diazaspiro[3.4]octan-6-yl]-3-(trifluoromethyl)pyridine-2-carbonitrile] | 0.8% | 0.2% |
| CN1CCC(Oc2ccc(N3C(=S)N(c4cnc(C#N)c(C(F)(F)F)c4)C(=O)C34CCC4)cc2F)CC1 [Cpd 28, 5-[8-[3-fluoro-4-[(1-methyl-4-piperidyl)oxy]phenyl]-5-oxo-7-thioxo-6,8-diazaspiro[3.4]octan-6-yl]-3-(trifluoromethyl)pyridine-2-carbonitrile] | −0.1% | 0.0% |
| N#Cc1ncc(N2C(=O)C3(CCC3)N(c3ccc(C(=O)NCc4ccccn4)c(F)c3)C2=S)cc1C(F)(F)F [Cpd 44, 4-[6-[6-cyano-5-(trifluoromethyl)-3-pyridyl]-5-oxo-7-thioxo-6,8-diazaspiro[3.4]octan-8-yl]-2-fluoro-N-(2-pyridylmethyl)benzamide] | −0.2% | 0.0% |
| CNC(=O)c1ccc(N2C(=S)N(c3cnc(C#N)c(C)c3)C(=O)C2(C)C)cc1F [Cpd 12, 4-[3-(6-cyano-5-methyl-3-pyridyl)-5,5-dimethyl-4-oxo-2-thioxo-imidazolidin-1-yl]-2-fluoro-N-methyl-benzamide] | 0.9% | −0.3% |
| Cc1cncc(-c2ccc(N3C(=S)N(c4cnc(C#N)c(C)c4)C(=O)C34CCC4)cc2)c1 [Cpd 114, 3-methyl-5-[8-[4-(5-methyl-3-pyridyl)phenyl]-5-oxo-7-thioxo-6,8-diazaspiro[3.4]octan-6-yl]pyridine-2-carbonitrile] | 0.7% | 3.3% |
